# Measurements: PubChem BioAssay AID1963854 (Molecular Pharmacology Branch, DTP, NCI, 2024)
# System: 186277-243-T-J2-PDC complex spheroid viability
# Experiment: Anticancer human tumor 186277-243-T-J2-PDC patient-derived colon adenocarcinoma cell line growth inhibition [POLQ]
# Settings: for IC50: curve of first compound; for viability, T/C: stronger effect = lower value
# Method in brief: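 Complex spheroid viability model combining PDC tumour cells with endothelial (HUVEC) and MSC stromal cells. Novobiocin, ART-558 or RP6685 were tested singly and in combination with standard and investigational anticancer drugs. Each was titrated in half-log steps from near clinical Cmax, or from 10 microM where Cmax was unknown.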
# [1] = second compound 0.0316 µM, first compound 0.0316 µM
# [2] = second compound 0.0316 µM, first compound 0.1 µM
# [3] = second compound 0.0316 µM, first compound 0.316 µM
# [4] = second compound 0.0316 µM, first compound 1 µM
# [5] = second compound 0.1 µM, first compound 0.0316 µM
# [6] = second compound 0.1 µM, first compound 0.1 µM
# [7] = second compound 0.1 µM, first compound 0.316 µM
# [8] = second compound 0.1 µM, first compound 1 µM
# [9] = second compound 0.316 µM, first compound 0.0316 µM
# [10] = second compound 0.316 µM, first compound 0.1 µM
# [11] = second compound 0.316 µM, first compound 0.316 µM
# [12] = second compound 0.316 µM, first compound 1 µM
# [13] = second compound 1 µM, first compound 0.0316 µM
# [14] = second compound 1 µM, first compound 0.1 µM
# [15] = second compound 1 µM, first compound 0.316 µM
# [16] = second compound 1 µM, first compound 1 µM
# [17] = second compound 3.16 µM, first compound 0.0316 µM
# [18] = second compound 3.16 µM, first compound 0.1 µM
# [19] = second compound 3.16 µM, first compound 0.316 µM
# [20] = second compound 3.16 µM, first compound 1 µM
# [21] = second compound 10 µM, first compound 0.0316 µM
# [22] = second compound 10 µM, first compound 0.1 µM
# [23] = second compound 10 µM, first compound 0.316 µM
# [24] = second compound 10 µM, first compound 1 µM
# [25] = second compound 0.0316 µM, first compound 0.00316 µM
# [26] = second compound 0.0316 µM, first compound 0.01 µM
# [27] = second compound 0.1 µM, first compound 0.00316 µM
# [28] = second compound 0.1 µM, first compound 0.01 µM
# [29] = second compound 0.316 µM, first compound 0.00316 µM
# [30] = second compound 0.316 µM, first compound 0.01 µM
# [31] = second compound 1 µM, first compound 0.00316 µM
# [32] = second compound 1 µM, first compound 0.01 µM
# [33] = second compound 3.16 µM, first compound 0.00316 µM
# [34] = second compound 3.16 µM, first compound 0.01 µM
# [35] = second compound 10 µM, first compound 0.00316 µM
# [36] = second compound 10 µM, first compound 0.01 µM
# 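Note: spheroids exposed to compounds for seven days.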
# 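Throughout, for viability, T/C: 100% = DMSO vehicle control viability.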
smiles,measurement,setting,value
CNCc1ccc(-c2[nH]c3cc(F)cc4c3c2CCNC4=O)cc1 + Nc1ccc(C#CCN(C(=O)Cc2ncc(C(F)(F)F)cc2C(F)(F)F)c2ccc(F)cc2)nn1,IC50,second compound 0.0316 µM,> 10000 nM
same,IC50,second compound 0.1 µM,> 10000 nM
same,IC50,second compound 0.316 µM,> 10000 nM
same,IC50,second compound 1 µM,> 10000 nM
same,IC50,second compound 3.16 µM,> 10000 nM
same,IC50,second compound 10 µM,> 10000 nM
same,"viability, T/C",[1],121%
same,"viability, T/C",[2],104%
same,"viability, T/C",[3],129%
same,"viability, T/C",[4],85.5%
same,"viability, T/C","second compound 0.0316 µM, first compound 3.16 µM",112%
same,"viability, T/C","second compound 0.0316 µM, first compound 10 µM",126%
same,"viability, T/C",[5],101%
same,"viability, T/C",[6],96.7%
same,"viability, T/C",[7],108%
same,"viability, T/C",[8],95.5%
same,"viability, T/C","second compound 0.1 µM, first compound 3.16 µM",125%
same,"viability, T/C","second compound 0.1 µM, first compound 10 µM",121%
same,"viability, T/C",[9],100%
same,"viability, T/C",[10],109%
same,"viability, T/C",[11],103%
same,"viability, T/C",[12],102%
same,"viability, T/C","second compound 0.316 µM, first compound 3.16 µM",105%
same,"viability, T/C","second compound 0.316 µM, first compound 10 µM",116%
same,"viability, T/C",[13],92.4%
same,"viability, T/C",[14],118%
same,"viability, T/C",[15],95%
same,"viability, T/C",[16],111%
same,"viability, T/C","second compound 1 µM, first compound 3.16 µM",98.7%
same,"viability, T/C","second compound 1 µM, first compound 10 µM",132%
same,"viability, T/C",[17],96.9%
same,"viability, T/C",[18],118%
same,"viability, T/C",[19],100%
same,"viability, T/C",[20],99.6%
same,"viability, T/C","second compound 3.16 µM, first compound 3.16 µM",111%
same,"viability, T/C","second compound 3.16 µM, first compound 10 µM",110%
same,"viability, T/C",[21],108%
same,"viability, T/C",[22],106%
same,"viability, T/C",[23],106%
same,"viability, T/C",[24],103%
same,"viability, T/C","second compound 10 µM, first compound 3.16 µM",88.2%
same,"viability, T/C","second compound 10 µM, first compound 10 µM",116%
COc1cccc(OCCCN)c1-c1cc(Nc2cnc(C#N)cn2)n[nH]1 + Nc1ccc(C#CCN(C(=O)Cc2ncc(C(F)(F)F)cc2C(F)(F)F)c2ccc(F)cc2)nn1,IC50,second compound 0.0316 µM,< 3.16 nM
same,IC50,second compound 0.1 µM,< 3.16 nM
same,IC50,second compound 0.316 µM,< 3.16 nM
same,IC50,second compound 1 µM,< 3.16 nM
same,IC50,second compound 3.16 µM,< 3.16 nM
same,IC50,second compound 10 µM,< 3.16 nM
same,"viability, T/C",[25],47%
same,"viability, T/C",[26],13.1%
same,"viability, T/C",[1],10.3%
same,"viability, T/C",[2],9.69%
same,"viability, T/C",[3],9.94%
same,"viability, T/C",[4],10.9%
same,"viability, T/C",[27],38.6%
same,"viability, T/C",[28],13.4%
same,"viability, T/C",[5],9.59%
same,"viability, T/C",[6],9.13%
same,"viability, T/C",[7],8.61%
same,"viability, T/C",[8],9.39%
same,"viability, T/C",[29],37.4%
same,"viability, T/C",[30],13.8%
same,"viability, T/C",[9],9.62%
same,"viability, T/C",[10],8.58%
same,"viability, T/C",[11],10.1%
same,"viability, T/C",[12],9.81%
same,"viability, T/C",[31],37.2%
same,"viability, T/C",[32],11.3%
same,"viability, T/C",[13],9.81%
same,"viability, T/C",[14],8.9%
same,"viability, T/C",[15],10.1%
same,"viability, T/C",[16],9.12%
same,"viability, T/C",[33],27.5%
same,"viability, T/C",[34],10.3%
same,"viability, T/C",[17],9.29%
same,"viability, T/C",[18],8.63%
same,"viability, T/C",[19],10.8%
same,"viability, T/C",[20],10.4%
same,"viability, T/C",[35],17.6%
same,"viability, T/C",[36],8.38%
same,"viability, T/C",[21],9.28%
same,"viability, T/C",[22],8.09%
same,"viability, T/C",[23],9.97%
same,"viability, T/C",[24],9.55%
Cn1ncnc1[C@H]1c2n[nH]c(=O)c3cc(F)cc(c23)N[C@@H]1c1ccc(F)cc1 + Nc1ccc(C#CCN(C(=O)Cc2ncc(C(F)(F)F)cc2C(F)(F)F)c2ccc(F)cc2)nn1,IC50,second compound 0.0316 µM,> 100 nM
same,IC50,second compound 0.1 µM,> 100 nM
same,IC50,second compound 0.316 µM,> 100 nM
same,IC50,second compound 1 µM,> 100 nM
same,IC50,second compound 3.16 µM,> 100 nM
same,IC50,second compound 10 µM,> 100 nM
same,"viability, T/C","second compound 0.0316 µM, first compound 0.000316 µM",101%
same,"viability, T/C","second compound 0.0316 µM, first compound 0.001 µM",90.9%
same,"viability, T/C",[25],110%
same,"viability, T/C",[26],113%
same,"viability, T/C",[1],130%
same,"viability, T/C",[2],124%
same,"viability, T/C","second compound 0.1 µM, first compound 0.000316 µM",103%
same,"viability, T/C","second compound 0.1 µM, first compound 0.001 µM",101%
same,"viability, T/C",[27],111%
same,"viability, T/C",[28],105%
same,"viability, T/C",[5],125%
same,"viability, T/C",[6],142%
same,"viability, T/C","second compound 0.316 µM, first compound 0.000316 µM",87.5%
same,"viability, T/C","second compound 0.316 µM, first compound 0.001 µM",110%
same,"viability, T/C",[29],102%
same,"viability, T/C",[30],111%
same,"viability, T/C",[9],119%
same,"viability, T/C",[10],143%
same,"viability, T/C","second compound 1 µM, first compound 0.000316 µM",91.3%
same,"viability, T/C","second compound 1 µM, first compound 0.001 µM",116%
same,"viability, T/C",[31],103%
same,"viability, T/C",[32],106%
same,"viability, T/C",[13],120%
same,"viability, T/C",[14],126%
same,"viability, T/C","second compound 3.16 µM, first compound 0.000316 µM",92.3%
same,"viability, T/C","second compound 3.16 µM, first compound 0.001 µM",111%
same,"viability, T/C",[33],112%
same,"viability, T/C",[34],105%
same,"viability, T/C",[17],116%
same,"viability, T/C",[18],140%
same,"viability, T/C","second compound 10 µM, first compound 0.000316 µM",93.4%
same,"viability, T/C","second compound 10 µM, first compound 0.001 µM",104%
same,"viability, T/C",[35],106%
same,"viability, T/C",[36],103%
same,"viability, T/C",[21],117%
same,"viability, T/C",[22],121%
